Test results: patent publication US20250326771A1, “PIPERAZINE DERIVATIVES USEFUL IN HIV THERAPY” (VIIV HEALTHCARE COMPANY, priority 2022, published 2025)
Read-outs that look alike come from different tables or passages of the source.

Experiments:
[1] = test system: Jurkat HIV-luciferase clones; assay: Jurkat latency reversal assay; format: cell-based; details: Homo sapiens, 48 h; Jurkat latency reversal assay potency; read-out: Jurkat pEC50 (converted)
Method in brief: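 Three pooled Jurkat reporter clones, each with one or two integrated HIV-luciferase proviruses, 5,000 cells/well; duplicate 14-point titrations starting at 10 μM; 48 h, 37° C, then Steady-Glo luminescence; four-parameter logistic analysis yields EC50 and percent maximal activation against DMSO vehicle.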

cIAP1-BIR3 = cIAP1-BIR3 (Homo sapiens (Human), UniProt Q13490); assay: BIR binding assay (FRET competition), cIAP1 BIR3; details: for cIAP1 BIR3 vs BIR2 separation window: fold separation (FS) for cIAP1
Sequence of cIAP1-BIR3 (Q13490 253-363): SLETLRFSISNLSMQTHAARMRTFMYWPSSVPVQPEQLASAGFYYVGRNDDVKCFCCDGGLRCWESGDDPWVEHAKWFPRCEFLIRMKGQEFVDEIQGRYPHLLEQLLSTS
Method in brief: (§1)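 Compounds tested as 15-point, 3-fold series displacing 200 nM AlexaFluor647-labelled SMAC peptide from His-tagged BIR domain (cIAP1-BIR3 50 nM; cIAP1-BIR2 and cIAP2-BIR2 325 nM; XIAP-BIR3 100 nM), pH 7.4, 60 min. Eu-W1024 (2 nM) added 30 min; emission ratio fitted for IC50.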

cIAP1-BIR2 = cIAP1-BIR2 (Homo sapiens (Human), UniProt Q13490); assay: BIR binding assay (FRET competition), cIAP1 BIR2
Sequence of cIAP1-BIR2 (Q13490 173-257): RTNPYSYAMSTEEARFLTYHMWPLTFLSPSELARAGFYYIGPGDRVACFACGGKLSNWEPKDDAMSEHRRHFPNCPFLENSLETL
Method in brief: as §1

cIAP2-BIR3 = cIAP2-BIR3 (Homo sapiens (Human), UniProt Q13489); assay: BIR binding assay (FRET competition), cIAP2 BIR3; details: for cIAP2 BIR3 vs BIR2 separation window: fold separation (FS) for cIAP2
Sequence of cIAP2-BIR3 (Q13489 238-349): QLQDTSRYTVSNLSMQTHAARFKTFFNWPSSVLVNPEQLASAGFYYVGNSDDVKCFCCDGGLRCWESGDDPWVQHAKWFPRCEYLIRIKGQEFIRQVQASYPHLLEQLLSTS

cIAP2-BIR2 = cIAP2-BIR2 (Homo sapiens (Human), UniProt Q13489); assay: BIR binding assay (FRET competition), cIAP2 BIR2
Sequence of cIAP2-BIR2 (Q13489 158-242): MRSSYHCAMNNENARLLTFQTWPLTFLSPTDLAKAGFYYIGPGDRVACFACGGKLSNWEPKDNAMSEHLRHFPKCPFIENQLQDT
Method in brief: as §1

XIAP-BIR3 = XIAP-BIR3 (Homo sapiens (Human), UniProt P98170); assay: BIR binding assay (FRET competition), XIAP BIR3; details: for XIAP BIR3 vs BIR2 separation window: fold separation (FS) for XIAP
Sequence of XIAP-BIR3 (P98170 241-356): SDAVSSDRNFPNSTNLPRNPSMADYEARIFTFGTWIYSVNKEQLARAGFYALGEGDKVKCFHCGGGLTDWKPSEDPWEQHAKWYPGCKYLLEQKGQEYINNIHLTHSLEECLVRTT
Method in brief: as §1

XIAP-BIR2 = XIAP-BIR2 (Homo sapiens (Human), UniProt P98170); assay: BIR binding assay (FRET competition), XIAP BIR2; details: read-out: XIAP BIR2 (pIC50) (converted)
Sequence of XIAP-BIR2 (P98170 124-240): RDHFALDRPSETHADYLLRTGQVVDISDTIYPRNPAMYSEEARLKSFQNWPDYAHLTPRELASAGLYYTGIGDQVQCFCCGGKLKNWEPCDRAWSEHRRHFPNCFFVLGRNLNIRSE
Method in brief: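 Competitive TR-FRET used His-tagged XIAP-BIR2 (200 nM) and 200 nM AlexaFluor647-labelled AVPIAQKSE SMAC peptide in HEPES buffer pH 7.4 with CHAPS, glycerol and DTT, incubated 60 min before 30 min with 2 nM Eu-W1024. The 615/665 nm ratio from a 15-point, 3-fold series was fit with a four-parameter model for IC50/pIC50.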

Row | SMILES | EC50 [1] [nM] | IC50 (cIAP1-BIR3) [nM] | cIAP1 BIR3 vs BIR2 separation window (cIAP1-BIR3) | IC50 (cIAP1-BIR2) [nM] | IC50 (cIAP2-BIR3) [nM] | cIAP2 BIR3 vs BIR2 separation window (cIAP2-BIR3) | IC50 (cIAP2-BIR2) [nM] | IC50 (XIAP-BIR3) [nM] | XIAP BIR3 vs BIR2 separation window (XIAP-BIR3) | IC50 (XIAP-BIR2; FRET competition) [nM] | IC50 (XIAP-BIR2; FRET competition binding) [nM]
1 | C[C@@H]1CN(CC(=O)N2CC(C)(C)c3[nH]c(=O)c(Cc4ccc(F)cc4F)cc32)[C@@H](CN2CCO[C@H](C(=O)NCc3ccc(CNC(=O)[C@@H]4CN(C[C@H]5CN[C@H](C)CN5CC(=O)N5CC(C)(C)c6[nH]c(=O)c(Cc7ccc(F)cc7F)cc65)CCO4)cc3)C2)CN1 [Compound 177, (2S,2′S)-N,N′-(1,4-phenylenebis(methylene)) bis(4-(((2R,5R)-1-(2-(6-(2,4-difluorobenzyl)-3,3-dimethyl-5-oxo-2,3,4,5-tetrahydro-1H-pyrrolo[3,2-b]pyridin-1-yl)-2-oxoethyl)-5-methylpiperazin-2-yl)methyl)morpholine-2-carboxamide)] | 0.49 to 12.6 | 15.8 to 31.6 | +++ (10,000>FS>1,000) | 1000 to 3160 | 7.94 to 15.8 | +++ (10,000>FS>1,000) | 1000 to 3160 | 31.6 to 501 | ++++ (FS>10,000) | 10000 to 51300 | –
2 | C[C@@H]1CN(CC(=O)N2CC(C)(C)c3[nH]c(=O)c(Cc4ccc(F)cc4)cc32)[C@@H](CN2CCC(CN(C)C(=O)Cc3ccc(CC(=O)N(C)CC4CCN(C[C@H]5CN[C@H](C)CN5CC(=O)N5CC(C)(C)c6[nH]c(=O)c(Cc7ccc(F)cc7)cc65)CC4)cc3)CC2)CN1 [Example 99, 2,2′-(1,4-phenylene)bis(N-((1-(((2R,5R)-1-(2-(6-(4-fluorobenzyl)-3,3-dimethyl-5-oxo-2,3,4,5-tetrahydro-1H-pyrrolo[3,2-b]pyridin-1-yl)-2-oxoethyl)-5-methylpiperazin-2-yl)methyl)piperidin-4-yl)methyl)-N-methylacetamide)] | 63.1 to 316 | 1.38 to 7.94 | +++ (10,000>FS>1,000) | 3160 to 10000 | 7.94 to 15.8 | +++ (10,000>FS>1,000) | 3160 to 10000 | 7.94 to 15.8 | ++++ (FS>10,000) | – | 10000 to 51300
3 | C[C@@H]1CN(CC(=O)N2CC(C)(C)c3[nH]c(=O)c(Cc4ccc(F)cc4)cc32)[C@@H](CN2CCN(CCc3cn(CCC(=O)N4CCN(C[C@H]5CN[C@H](C)CN5CC(=O)N5CC(C)(C)c6[nH]c(=O)c(Cc7ccc(F)cc7)cc65)[C@H](C)C4)nn3)C[C@H]2C)CN1 [Compound 154] | 63.1 to 316 | 7.94 to 15.8 | +++ (10,000>FS>1,000) | 1000 to 3160 | 7.94 to 15.8 | +++ (10,000>FS>1,000) | 1000 to 3160 | 7.94 to 15.8 | ++++ (FS>10,000) | 10000 to 51300 | –
4 | C[C@@H]1CN(CC(=O)N2CC(C)(C)c3[nH]c(=O)c(Cc4ccc(F)cc4)cc32)[C@@H](CN2CCC(CN(C)C(=O)c3cccc(C(=O)N(C)CC4CCN(C[C@H]5CN[C@H](C)CN5CC(=O)N5CC(C)(C)c6[nH]c(=O)c(Cc7ccc(F)cc7)cc65)CC4)c3)CC2)CN1 [Example 95, N^1,N^3-bis((1-(((2R,5R)-1-(2-(6-(4-fluorobenzyl)-3,3-dimethyl-5-oxo-2,3,4,5-tetrahydro-1H-pyrrolo[3,2-b]pyridin-1-yl)-2-oxoethyl)-5-methylpiperazin-2-yl)methyl)piperidin-4-yl)methyl)-N^1,N^3-dimethylisophthalamide] | 63.1 to 316 | 31.6 to 501 | ++ (1,000>FS>100) | 1000 to 3160 | 1.38 to 7.94 | +++ (10,000>FS>1,000) | 1000 to 3160 | 7.94 to 15.8 | ++++ (FS>10,000) | – | 10000 to 51300
5 | C[C@@H]1CN(CC(=O)N2CC(C)(C)c3[nH]c(=O)c(Cc4ccc(F)cc4)cc32)[C@@H](CN2CCO[C@H](COCC#CC#CCOC[C@@H]3CN(C[C@H]4CN[C@H](C)CN4CC(=O)N4CC(C)(C)c5[nH]c(=O)c(Cc6ccc(F)cc6)cc54)CCO3)C2)CN1 [Example 63, 1,1′-(2,2′-((3R,3′R,6R,6′R)-(((2S,2'S)-((hexa-2,4-diyne-1,6-diylbis(oxy))bis(methylene))bis(morpholine-2,4-diyl))bis(methylene))bis(3-methylpiperazine-6,1-diyl))bis(acetyl))bis(6-(4-fluorobenzyl)-3,3-dimethyl-1,2,3,4-tetrahydro-5H-pyrrolo[3,2-b]pyridin-5-one)] | 12.6 to 63.1 | 7.94 to 15.8 | – | 1000 to 3160 | 15.8 to 31.6 | – | 3160 to 10000 | 15.8 to 31.6 | – | – | 10000 to 51300
6 | C[C@@H]1CN(CC(=O)N2CC(C)(C)c3[nH]c(=O)c(Cc4ccc(F)cc4)cc32)[C@@H](CN2CCN(C(=O)COCCOCC(=O)N3CCN(C[C@H]4CN[C@H](C)CN4CC(=O)N4CC(C)(C)c5[nH]c(=O)c(Cc6ccc(F)cc6)cc54)[C@H](C)C3)C[C@H]2C)CN1 [Example 5, 1,1′-(2,2′-((3R,3′R,6R,6′R)-(((2R,2′R)-(2,2′-(ethane-1,2-diylbis(oxy))bis(acetyl))bis(2-methylpiperazine-4,1-diyl))bis(methylene))bis(3-methylpiperazine-6,1-diyl))bis(acetyl))bis(6-(4-fluorobenzyl)-3,3-dimethyl-1,2,3,4-tetrahydro-5H-pyrrolo[3,2-b]pyridin-5-one)] | 63.1 to 316 | 31.6 to 501 | ++ (1,000>FS>100) | 3160 to 10000 | 15.8 to 31.6 | ++ (1,000>FS>100) | 1000 to 3160 | 31.6 to 501 | ++++ (FS>10,000) | – | 10000 to 51300
7 | C[C@@H]1CN(CC(=O)N2CC(C)(C)c3[nH]c(=O)c(Cc4ccc(F)cc4)cc32)[C@@H](CN2CCO[C@H](C(=O)NCCCN(C)C(=O)[C@@H]3CN(C[C@H]4CN[C@H](C)CN4CC(=O)N4CC(C)(C)c5[nH]c(=O)c(Cc6ccc(F)cc6)cc54)CCO3)C2)CN1 [Compound 135, (S)-4-(((2R,5R)-1-(2-(6-(4-fluorobenzyl)-3,3-dimethyl-5-oxo-2,3,4,5-tetrahydro-1H-pyrrolo[3,2-b]pyridin-1-yl)-2-oxoethyl)-5-methylpiperazin-2-yl)methyl)-N-(3-((S)-4-(((2R,5R)-1-(2-(6-(4-fluorobenzyl)-3,3-dimethyl-5-oxo-2,3,4,5-tetrahydro-1H-pyrrolo[3,2-b]pyridin-1-yl)-2-oxoethyl)-5-methylpiperazin-2-yl)methyl)morpholine-2-carboxamido)propyl)-N-methylmorpholine-2-carboxamide] | 63.1 to 316 | 15.8 to 31.6 | +++ (10,000>FS>1,000) | 3160 to 10000 | 7.94 to 15.8 | +++ (10,000>FS>1,000) | 3160 to 10000 | 15.8 to 31.6 | ++++ (FS>10,000) | 10000 to 51300 | –
8 | C[C@@H]1CN(CC(=O)N2CC(C)(C)c3[nH]c(=O)c(Cc4ccc(F)cc4)cc32)[C@@H](CN2CCN(C(=O)c3ccc4cc(C(=O)N5CCN(C[C@H]6CN[C@H](C)CN6CC(=O)N6CC(C)(C)c7[nH]c(=O)c(Cc8ccc(F)cc8)cc76)[C@H](C)C5)ccc4c3)C[C@H]2C)CN1 [Example 18, 1,1′-(2,2′-((3R,3′R,6R,6′R)-(((2R,2′R)-(naphthalene-2,6-dicarbonyl)bis(2-methylpiperazine-4,1-diyl))bis(methylene))bis(3-methylpiperazine-6,1-diyl))bis(acetyl))bis(6-(4-fluorobenzyl)-3,3-dimethyl-1,2,3,4-tetrahydro-5H-pyrrolo[3,2-b]pyridin-5-one)] | 12.6 to 63.1 | 1.38 to 7.94 | +++ (10,000>FS>1,000) | 1000 to 3160 | 1.38 to 7.94 | +++ (10,000>FS>1,000) | 1000 to 3160 | 1.38 to 7.94 | ++++ (FS>10,000) | – | 10000 to 51300
